In US11046686B2, “Thiadiazole IRAK4 compounds” (Gilead Sciences, Inc., priority 2018, dated 2021):

Test system: TNFα
Experiment: IRAK4 Monocyte TNFα Cell Based Assay
Set-up: species or system human
Settings: Homo sapiens, Monocyte, read-out: EC50 MONO TNF HTRF
How it was run: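 Human monocytes (5,000/well) pretreated with compound 1 h at 37 °C (0.1% DMSO final), then stimulated with 50 pg/ml LPS for 4 h. Secreted TNFα measured by TR-FRET two-antibody detection after overnight incubation at room temperature; % control relative to unstimulated and LPS-stimulated wells.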

**Q.** `CC(C)Nc1cc(-c2ccc3cc(C#N)cnn23)ncc1-c1nnc(N2CC3CC(C2)N3C(=O)CN=S(C)(C)=O)s1` [Example 107, 7-(5-(5-(6-(2-((dimethyl(oxo)-16-sulfanylidene)amino)acetyl)-3,6-diazabicyclo[3.1.1]heptan-3-yl)-1,3,4-thiadiazol-2-yl)-4-(isopropylamino)pyridin-2-yl)pyrrolo[1,2-b]pyridazine-3-carbonitrile] was tested. Which EC50 did it give?
**A.** 18.4 nM

**Q.** With `CC(C)Nc1cc(-c2ccc3cc(C#N)cnn23)ncc1-c1nnc(N2CC3CC(C2)N3C(=O)N2CCN(C)CC2)s1` [Example 108, 7-(4-(isopropylamino)-5-(5-(6-(4-methylpiperazine-1-carbonyl)-3,6-diazabicyclo[3.1.1]heptan-3-yl)-1,3,4-thiadiazol-2-yl)pyridin-2-yl)pyrrolo[1,2-b]pyridazine-3-carbonitrile] as the compound, how does the EC50 read?
**A.** 20.6 nM

**Q.** Which EC50 does the source give for `CC(=O)N1C2CC1CN(c1nnc(-c3cnc(-c4ccc5cc(C#N)cnn45)cc3NC3(C)COC3)s1)C2` [Example 111, 7-(5-(5-(6-acetyl-3,6-diazabicyclo[3.1.1]heptan-3-yl)-1,3,4-thiadiazol-2-yl)-4-((3-methyloxetan-3-yl)amino)pyridin-2-yl)pyrrolo[1,2-b]pyridazine-3-carbonitrile] here?
**A.** 8.8 nM

**Q.** With `CC1(Nc2cc(-c3ccc4cc(C#N)cnn34)ncc2-c2nnc(N3CC4CC(C3)N4C(=O)C(C)(C)O)s2)COC1` [Example 112, 7-(5-(5-(6-(2-hydroxy-2-methylpropanoyl)-3,6-diazabicyclo[3.1.1]heptan-3-yl)-1,3,4-thiadiazol-2-yl)-4-((3-methyloxetan-3-yl)amino)pyridin-2-yl)pyrrolo[1,2-b]pyridazine-3-carbonitrile] as the compound, how does the EC50 read?
**A.** 13.1 nM

**Q.** With `CN1CCN(C(=O)N2C3CC2CN(c2nnc(-c4cnc(-c5ccc6cc(C#N)cnn56)cc4NC4(C)COC4)s2)C3)CC1` [Example 114, 7-(4-((3-methyloxetan-3-yl)amino)-5-(5-(6-(4-methylpiperazine-1-carbonyl)-3,6-diazabicyclo[3.1.1]heptan-3-yl)-1,3,4-thiadiazol-2-yl)pyridin-2-yl)pyrrolo[1,2-b]pyridazine-3-carbonitrile] as the compound, how does the EC50 read?
**A.** 24.4 nM

**Q.** How did the EC50 turn out when `CN1CCC(C(=O)N2C3CC2CN(c2nnc(-c4cnc(-c5ccc6cc(C#N)cnn56)cc4NC4(C)COC4)s2)C3)CC1` [Example 118, 7-(4((3-methyloxetan-3-yl)amino)-5-(5-(6-(1-methylpiperidine-4-carbonyl)-3,6-diazabicyclo[3.1.1]heptan-3-yl)-1,3,4-thiadiazol-2-yl)pyridin-2-yl)pyrrolo[1,2-b]pyridazine-3-carbonitrile] was run?
**A.** 29 nM

Same assay, conditions: human monocytes; second part of Table 2, compounds 33-343; unit inferred; read-out: EC50 MONO TNF HTRF

**Q.** For `CC(C)Nc1cc(-c2ccc3cc(C#N)cnn23)ncc1-c1nnc(N2C[C@H]3CC[C@@H](C2)[C@@H]3NC(=O)C2(C)COC2)s1` [Example 94], which EC50 is on record?
**A.** 4 nM

**Q.** How did the EC50 turn out when `CC(C)Nc1cc(-c2ccc3cc(C#N)cnn23)ncc1-c1nnc(N2C[C@H]3CC[C@@H](C2)[C@@H]3NC(=O)C2(C)CCOCC2)s1` [Example 95, N-((1R,5S,8s)-3-(5-(6-(3-cyanopyrrolo[1,2-b]pyridazin-7-yl)-4-(isopropylamino)pyridin-3-yl)-1,3,4-thiadiazol-2-yl)-3-azabicyclo[3.2.1]octan-8-yl)-4-methyltetrahydro-2H-pyran-4-carboxamide] was run?
**A.** 4.1 nM

**Q.** `CC(C)Nc1cc(-c2ccc3cc(C#N)cnn23)ncc1-c1nnc(N2C[C@H]3CC[C@@H](C2)[C@@H]3NC(=O)C(C)(C)C(=O)O)s1` [Example 97] was tested. Which EC50 did it give?
**A.** 21.7 nM

**Q.** How did the EC50 turn out when `CC(C)Nc1cc(-c2ccc3cc(C#N)cnn23)ncc1-c1nnc(N2C[C@H]3CC[C@@H](C2)[C@@H]3NC(=O)CN=S(C)(C)=O)s1` [Example 98, N-((1R,5S,8s)-3-(5-(6-(3-cyanopyrrolo[1,2-b]pyridazin-7-yl)-4-(isopropylamino)pyridin-3-yl)-1,3,4-thiadiazol-2-yl)-3-azabicyclo[3.2.1]octan-8-yl)-2-((dimethyl(oxo)-16-sulfanylidene)amino)acetamide] was run?
**A.** 3.2 nM

**Q.** `CC(=O)NC1CCC2(CC1)CN(c1nnc(-c3cnc(-c4ccc5cc(C#N)cnn45)cc3NC3(C)COC3)s1)C2` [Example 99] was tested. Which EC50 did it give?
**A.** 5.8 nM

**Q.** `CC(C)Nc1cc(-c2ccc3cc(C#N)cnn23)ncc1-c1nnc(N2C[C@H]3CC[C@@H](C2)[C@@H]3NC(=O)C2CCN(C)CC2)s1` [Example 100, N-((1R,5S,8s)-3-(5-(6-(3-cyanopyrrolo[1,2-b]pyridazin-7-yl)-4-(isopropylamino)pyridin-3-yl)-1,3,4-thiadiazol-2-yl)-3-azabicyclo[3.2.1]octan-8-yl)-1-methylpiperidine-4-carboxamide] was tested. Which EC50 did it give?
**A.** 2.1 nM

**Q.** With `CC(C)(O)C(=O)N[C@@H]1[C@@H]2CC[C@H]1CN(c1nnc(-c3cnc(-c4ccc5cc(C#N)cnn45)cc3NC3CCOCC3)s1)C2` [Example 101, N-((1R,5S,8s)-3-(5-(6-(3-cyanopyrrolo[1,2-b]pyridazin-7-yl)-4-((tetrahydro-2H-pyran-4-yl)amino)pyridin-3-yl)-1,3,4-thiadiazol-2-yl)-3-azabicyclo[3.2.1]octan-8-yl)-2-hydroxy-2-methylpropanamide] as the compound, how does the EC50 read?
**A.** 1.2 nM

**Q.** With `CC(C)Nc1cc(-c2ccc3cc(C#N)cnn23)ncc1-c1nnc(N2C[C@H]3CC[C@@H](C2)[C@@H]3NC(=O)C(=O)N=S(C)(C)=O)s1` [Example 103, N1-((lR,5S,8s)-3-(5-(6-(3-cyanopyrrolo[1,2-b]pyridazin-7-yl)-4-(isopropylamino)pyridin-3-yl)-1,3,4-thiadiazol-2-yl)-3-azabicyclo[3.2.1]octan-8-yl)-N2-(dimethyl(oxo)-16-sulfanylidene)oxalamide] as the compound, how does the EC50 read?
**A.** 1.4 nM

**Q.** Which EC50 does the source give for `COC(=O)N1CCN(C(=O)N[C@@H]2[C@@H]3CC[C@H]2CN(c2nnc(-c4cnc(-c5ccc6cc(C#N)cnn56)cc4NC(C)C)s2)C3)CC1` [Example 105, methyl 4-(((1R,5S,8s)-3-(5-(6-(3-cyanopyrrolo[1,2-b]pyridazin-7-yl)-4-(isopropylamino)pyridin-3-yl)-1,3,4-thiadiazol-2-yl)-3-azabicyclo[3.2.1]octan-8-yl)carbamoyl)piperazine-1-carboxylate] here?
**A.** 4.2 nM

**Q.** `CC(C)Nc1cc(-c2ccc3cc(C#N)cnn23)ncc1-c1nnc(N2C[C@H]3CC[C@@H](C2)[C@@H]3NC(=O)N2CCN(S(C)(=O)=O)CC2)s1` [Example 106, N-((1R,5S,8s)-3-(5-(6-(3-cyanopyrrolo[1,2-b]pyridazin-7-yl)-4-(isopropylamino)pyridin-3-yl)-1,3,4-thiadiazol-2-yl)-3-azabicyclo[3.2.1]octan-8-yl)-4-(methylsulfonyl)piperazine-1-carboxamide] was tested. Which EC50 did it give?
**A.** 2.6 nM

**Q.** How did the EC50 turn out when `CC1(Nc2cc(-c3ccc4cc(C#N)cnn34)ncc2-c2nnc(N3C[C@H]4CC[C@@H](C3)[C@@H]4NC(=O)CN=S(C)(C)=O)s2)COC1` [Example 109, N-((1R,5S,8s)-3-(5-(6-(3-cyanopyrrolo[1,2-b]pyridazin-7-yl)-4-((3-methyloxetan-3-yl)amino)pyridin-3-yl)-1,3,4-thiadiazol-2-yl)-3-azabicyclo[3.2.1]octan-8-yl)-2-((dimethyl(oxo)-16-sulfanylidene)amino)acetamide] was run?
**A.** 4.1 nM

**Q.** For `CN1CCN(C(=O)N[C@@H]2[C@@H]3CC[C@H]2CN(c2nnc(-c4cnc(-c5ccc6cc(C#N)cnn56)cc4NC4(C)COC4)s2)C3)CC1` [Example 110, N-((1R,5S,8s)-3-(5-(6-(3-cyanopyrrolo[1,2-b]pyridazin-7-yl)-4-((3-methyloxetan-3-yl)amino)pyridin-3-yl)-1,3,4-thiadiazol-2-yl)-3-azabicyclo[3.2.1]octan-8-yl)-4-methylpiperazine-1-carboxamide], which EC50 is on record?
**A.** 1.8 nM

**Q.** For `CC1(Nc2cc(-c3ccc4cc(C#N)cnn34)ncc2-c2nnc(N3CC4CC(C3)N4C(=O)CN=S(C)(C)=O)s2)COC1` [Example 113, 7-(5-(5-(6-(2-((dimethyl(oxo)-16-sulfanylidene)amino)acetyl)-3,6-diazabicyclo[3.1.1]heptan-3-yl)-1,3,4-thiadiazol-2-yl)-4-((3-methyloxetan-3-yl)amino)pyridin-2-yl)pyrrolo[1,2-b]pyridazine-3-carbonitrile], which EC50 is on record?
**A.** 47.4 nM

**Q.** `C[C@H](C#N)Nc1cc(-c2ccc3cc(C#N)cnn23)ncc1-c1nnc(N2CC3CC(C2)N3C(=O)C(C)(C)O)s1` [Example 115] was tested. Which EC50 did it give?
**A.** 3.5 nM

**Q.** `CC(C)Nc1cc(-c2ccc3cc(C#N)cnn23)ncc1-c1nnc(N2CC3CC(C2)N3C(=O)C2CCN(C)CC2)s1` [Example 117] was tested. Which EC50 did it give?
**A.** 11.1 nM

**Q.** With `CN1CCC(C(=O)N[C@@H]2[C@@H]3CC[C@H]2CN(c2nnc(-c4cnc(-c5ccc6cc(C#N)cnn56)cc4NC4(C)COC4)s2)C3)CC1` [Example 119, N-((1R,5S,8s)-3-(5-(6-(3-cyanopyrrolo[1,2-b]pyridazin-7-yl)-4-((3-methyloxetan-3-yl)amino)pyridin-3-yl)-1,3,4-thiadiazol-2-yl)-3-azabicyclo[3.2.1]octan-8-yl)-1-methylpiperidine-4-carboxamide] as the compound, how does the EC50 read?
**A.** 1.2 nM

**Q.** Which EC50 does the source give for `CC(C)Nc1cc(-c2ccc3cc(C#N)cnn23)ncc1-c1nnc([C@H]2CC[C@H](NC(=O)C3CC3)CC2)s1` [Example 125, N-((1r,4r)-4-(5-(6-(3-cyanopyrrolo[1,2-b]pyridazin-7-yl)-4-(isopropylamino)pyridin-3-yl)-1,3,4-thiadiazol-2-yl)cyclohexyl)cyclopropanecarboxamide] here?
**A.** 5.4 nM

**Q.** For `COC(=O)N[C@H]1CC[C@H](c2nnc(-c3cnc(-c4ccc5cc(C#N)cnn45)cc3NC(C)C)s2)CC1` [Example 126, methyl ((1r,4r)-4-(5-(6-(3-cyanopyrrolo[1,2-b]pyridazin-7-yl)-4-(isopropylamino)pyridin-3-yl)-1,3,4-thiadiazol-2-yl)cyclohexyl)carbamate], which EC50 is on record?
**A.** 26.2 nM

**Q.** With `COC(=O)NC[C@H]1C[C@H](Nc2cc(-c3ccc4cc(C#N)cnn34)ncc2-c2nnc([C@H]3CC[C@H](NC(=O)C4CC4)CC3)s2)C1` [Example 134, methyl (((1R,3r)-3-((2-(3-cyanopyrrolo[1,2-b]pyridazin-7-yl)-5-(5-((1r,4R)-4-(cyclopropanecarboxamido)cyclohexyl)-1,3,4-thiadiazol-2-yl)pyridin-4-yl)amino)cyclobutyl)methyl)carbamate] as the compound, how does the EC50 read?
**A.** 6.9 nM
